Test results reported in patent US7781421B2, “Neuroactive 13, 24-cyclo-18, 21-dinorcholanes and structurally related pentacyclic steriods” (Washington University, priority 2003, dated 2010).

Experiments:
Xenopus laevis tadpoles = assay: Tadpole loss of righting (LRR) and swimming (LSR) reflexes; assay type: in vivo; conditions: 3 h equilibration at room temperature; for EC50: Xenopus laevis, 3 h, read-out: LSR EC50 (loss of swimming response)
Description: Tadpole LRR was measured as described previously. (See, Wittmer, L. L., et al., Enantioselectivity of steroid-induced γ-aminobutyric acidA receptor modulation and anesthesia, Mol. Phar., 1996, 50:1581-1586). Briefly, groups of 10 early prelimb-bud stage Xenopus laevis tadpoles (Nasco, Fort Atkinson, Wis.) were placed in 100 mL of oxygenated Ringer's stock solution containing various concentrations of compound. Compounds were added from a 10 mM DMSO stock (final concentration of DMSO in test solutions ≦0.1%). After equilibrating at room temperature for 3 h, tadpoles were evaluated using the LRR and LSR behavioral endpoints. LRR was defined as failure of the tadpole to right itself within 5 sec after being flipped by a smooth glass rod. LSR was defined as failure of the tadpole to swim when touched by a smooth glass rod. In general, the tadpoles regained their righting and swimming reflexes when placed in fresh oxygenated Ringer's solution. Control beakers containing up to 0.6% DMSO produced no LRR or LSR in tadpoles.
Tadpole LRR and LSR concentration-response curves were fit using Sigma Plot version 3.0 to the Hill equation f=Rmax/{1+([conc]/EC50)^n}
where Rmax is the maximum effect, [conc] is the steroid concentration, EC50 is the half-maximal effective concentration, and n is the Hill coefficient.

[1] = biological target: T1, rat α1β2γ2 GABAA Receptor (Rattus norvegicus, UniProt P18508+P62813+P63138, INS375LLRMFSFK); assay: Xenopus oocyte two-electrode voltage-clamp electrophysiology; assay type: cell-based; conditions: for Oocyte electrophysiology, ratio of currents in presence/absence of compound, 0.1 μM: 0.1 μM compound co-applied with 2 μM GABA; for Oocyte electrophysiology, ratio of currents in presence/absence of compound, 0.1 μM / Oocyte electrophysiology, ratio of currents in presence/absence of compound, 1 μM / Oocyte electrophysiology, ratio of currents in presence/absence of compound, 10 μM: −70 mV; for Oocyte electrophysiology, ratio of currents in presence/absence of compound, 1 μM: 1 μM compound co-applied with 2 μM GABA; for Oocyte electrophysiology, ratio of currents in presence/absence of compound, 10 μM: 10 μM compound co-applied with 2 μM GABA; for Gating (10 μM), ratio of compound only current/2 μM GABA current: direct current gated by 10 μM compound in the absence of GABA
T1 construct: from linearized pBluescript vectors containing receptor coding regions; expressed in transfected cells; host or cells: Xenopus laevis oocytes injected with in vitro transcribed capped mRNA
T1 sequence (P62813 28-455, stated change not applied): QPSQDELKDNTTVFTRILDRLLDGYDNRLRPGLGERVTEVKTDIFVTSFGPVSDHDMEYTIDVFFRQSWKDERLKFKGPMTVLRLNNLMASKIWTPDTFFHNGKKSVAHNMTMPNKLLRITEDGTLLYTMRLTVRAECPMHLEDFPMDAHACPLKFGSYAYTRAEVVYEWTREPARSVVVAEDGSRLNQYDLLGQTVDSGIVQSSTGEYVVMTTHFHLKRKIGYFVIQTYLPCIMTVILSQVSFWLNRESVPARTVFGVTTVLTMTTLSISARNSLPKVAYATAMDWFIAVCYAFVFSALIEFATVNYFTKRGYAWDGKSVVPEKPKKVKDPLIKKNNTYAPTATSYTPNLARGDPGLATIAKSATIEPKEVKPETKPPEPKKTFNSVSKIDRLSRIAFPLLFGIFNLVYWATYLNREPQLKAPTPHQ
T1 sequence (P63138 26-474, stated change not applied): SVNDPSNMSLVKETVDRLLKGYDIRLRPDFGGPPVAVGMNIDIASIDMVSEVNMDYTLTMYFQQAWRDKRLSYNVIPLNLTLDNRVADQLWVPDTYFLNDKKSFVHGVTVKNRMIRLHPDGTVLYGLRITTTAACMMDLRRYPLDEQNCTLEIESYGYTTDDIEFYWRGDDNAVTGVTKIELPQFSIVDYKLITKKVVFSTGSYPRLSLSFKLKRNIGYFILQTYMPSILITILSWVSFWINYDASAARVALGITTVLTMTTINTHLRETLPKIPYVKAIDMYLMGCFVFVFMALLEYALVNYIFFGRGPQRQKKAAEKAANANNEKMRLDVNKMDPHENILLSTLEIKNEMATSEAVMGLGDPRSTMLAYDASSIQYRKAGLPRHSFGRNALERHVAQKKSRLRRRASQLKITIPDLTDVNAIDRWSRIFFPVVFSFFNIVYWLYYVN
T1 sequence (P18508 with tags, fused parts or gaps INS375LLRMFSFK): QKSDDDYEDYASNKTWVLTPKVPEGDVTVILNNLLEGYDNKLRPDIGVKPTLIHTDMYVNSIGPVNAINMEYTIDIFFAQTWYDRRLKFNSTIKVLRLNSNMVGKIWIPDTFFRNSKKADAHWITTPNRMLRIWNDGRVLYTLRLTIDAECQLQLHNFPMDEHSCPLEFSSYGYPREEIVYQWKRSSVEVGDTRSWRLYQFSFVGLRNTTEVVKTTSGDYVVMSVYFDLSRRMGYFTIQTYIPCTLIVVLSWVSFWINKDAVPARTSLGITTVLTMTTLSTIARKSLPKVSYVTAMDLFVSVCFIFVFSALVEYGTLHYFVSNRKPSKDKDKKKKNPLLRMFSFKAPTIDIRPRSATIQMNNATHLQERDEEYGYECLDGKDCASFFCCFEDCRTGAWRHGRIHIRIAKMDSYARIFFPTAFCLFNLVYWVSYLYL
Description: Stage V-VI oocytes were harvested from sexually mature female Xenopus laevis (Xenopus One, Northland, Mich.) under 0.1% tricaine (3-aminobenzoic acid ethyl ester) anesthesia. Oocytes were defolliculated by shaking for 20 min at 37° C. in collagenase (2 mg/ml) dissolved in calcium-free solution containing (in mM): 96 NaCl, 2 KCl, 1 MgCl2, and 5 HEPES at pH 7.4. Capped mRNA, encoding rat GABAA receptor α1, β2 and γ2L subunits was transcribed in vitro using the mMESSAGE mMachine Kit (Ambion, Austin, Tex.) from linearized pBluescript vectors containing receptor coding regions. Subunit transcripts were injected in equal parts (20-40 ng total RNA) 8-24 hours following defolliculation. Oocytes were incubated up to 5 days at 18° C. in ND96 medium containing (in mM): 96 NaCl, 1 KCl, 1 MgCl2, 2 CaCl2 and 5 HEPES at pH 7.4, supplemented with pyruvate (5 mM), penicillin (100 U/ml), streptomycin (100 μg/ml) and gentamycin (50 μg/ml). The cDNAs for the rat GABAA-receptor subunits were originally provided by A. Tobin, University of California, Los Angels (α1), P. Malherbe, Hoffman-La Roche, Switzerland (β2), C. Fraser, National Institute on Alcohol Abuse and Alcoholism (γ2L).
Two-electrode voltage-clamp experiments were performed with a Warner OC725 amplifier 2-5 days following RNA injection. The extracellular recording solution was ND96 medium with no supplements. Intracellular recording pipettes were filled with 3 M KCl and had open tip resistances of ˜1 MΩ. Drugs were applied from a common tip via a gravity-driven multibarrel drug-delivery system. Steroids were simultaneously co-applied with GABA. Cells were clamped at −70 mV for all experiments, and peak current during 20 s drug applications was measured. Data acquisition and analysis were performed with pCLAMP software (Axon Instruments, California). Statistical differences were determined using a two-tailed Student's t-test.
The GABA concentration used for the control response was 2 μM. Each compound was evaluated on at least four different oocytes at the concentrations indicated, and the results reported are the ratio of the currents measured in the presence/absence of added compound. (G) represents direct current gated by 10 μM compound in the absence of GABA, and this current is reported as the ratio of compound only current/2 μM GABA current. Error limits are calculated as standard error of the means.

[2] = biological target: GABAA receptor ([35S]-TBPS binding site, rat brain cortical membranes); assay: Displacement of [35S]-TBPS binding, rat brain cortical membranes; conditions: 5 μM GABA, 2 nM [35S]-TBPS; ± standard error of the means
Description: Rat brain cortical membranes were prepared with minor modifications of the method previously reported. (Hawkinson, J. E., et al., Correlation of Neuroactive Steroid Modulation of [^35S]t-Butylbicyclophosophorothionate and [^3H]Flunitrazepam Binding and γ-Aminobutyric AcidA Receptor Function, Mol. Pharmacol., 1994, 46, 977-985). Briefly, frozen rat cerebral cortices (Pel-freez, Rogers, Ak.) were thawed and homogenized in 10 volumes of ice-cold 0.32 M sucrose using a glass/Teflon pestle. The homogenate was centrifuged at 1500×g for 10 min at 4° C. The resultant supernatant was centrifuged at 10,000×g for 30 min at 4° C. The pellet (P2) from this centrifugation was resuspended in 200 mM NaCl, 50 mM potassium phosphate buffer, pH 7.4, and centrifuged at 10,000×g for 20 min at 4° C. This washing procedure was done a total of three times, and then pellets were resuspended in buffer (˜4 mL/brain) using a glass/Teflon pestle. The membrane suspension was aliquoted, frozen in liquid nitrogen, and stored at −80° C. prior to use.
[^35S]-TBPS Binding assays were done according to the procedure described previously (Hawkinson, J. E., et al., Correlation of Neuroactive Steroid Modulation of [^35S]t-Butylbicyclophosophorothionate and [^3H]Flunitrazepam Binding and γ-Aminobutyric AcidA Receptor Function, Mol. Pharmacol., 1994, 46, 977-985) with modifications. Briefly, aliquots of membrane solution (0.5 mg/mL final protein concentration in assay) were incubated with 5 μM GABA, 2 nM [^35S]-TBPS (45-120 Ci/mmol), and 5 μL aliquots of steroid in DMSO solution (final assay concentrations ranged from 1 nM to 10 μM), and brought to a final volume of 1 mL with 200 mM NaCl, 50 mM potassium phosphate buffer, pH 7.4. […] Assay tubes were incubated for 2 hr at room temperature. A Brandel (Gaithersburg, Md.) cell harvester was used for filtration of the assay tubes through Whatman/GF/C glass filter paper. Filter paper was rinsed with 4 mL of ice-cold buffer three times. Radioactivity bound to the filters was read by liquid scintillation counter and data was fit using Sigma Plot version 3.0 to the Hill equation i. f=Rmax/{1+([conc]/IC50)^n}
Where Rmax is the maximal effect, [conc] is steroid concentration, IC50 is the half-maximal inhibitor concentration and n is the Hill coefficient. Each data point was determined in triplicate and 2-3 full concentration-response curves were generated for each steroid.

Compound	LRR ED50 (loss of righting response) (Xenopus laevis tadpoles)	LSR EC50 (loss of swimming response) (Xenopus laevis tadpoles)	Oocyte electrophysiology, ratio of currents in presence/absence of compound, 0.1 μM [1]	Oocyte electrophysiology, ratio of currents in presence/absence of compound, 1 μM [1]	Oocyte electrophysiology, ratio of currents in presence/absence of compound, 10 μM [1]	Gating (10 μM), ratio of compound only current/2 μM GABA current [1]	IC50 [2]	melting point	EC50 (Xenopus laevis tadpoles)
CC12CCC(O)CC1CCC1C2CCC23CCCC(O)C2CCC13 [Compound 68, (3α,5α,20R)-13,24-cyclo-18,21-dinorcholane-3,20-diol]	>10000 nM	None @ 10	0.74 ± 0.05	0.74 ± 0.05	0.79 ± 0.04	0.01 ± 0.02	1540 nM	269 to 271 °C	
C[C@]12CC[C@@H](O)C[C@@H]1CCC1C3CC[C@@H]4C[C@@H](C#N)CC[C@]34CCC12 (stereo partly drawn) [Compound 44, (3α,5α,22S)-3-Hydroxy-13,24-cyclo-18,21-dinorcholane-22-carbonitrile]	300 ± 30 nM		1.19 ± 0.02	1.14 ± 0.13	4.01 ± 0.42	0.03 ± 0.01	585 ± 30 nM	199 to 200 °C	6280 ± 1080 nM
CC(=O)[C@H]1CC[C@H]2[C@@H]3CC[C@@H]4C[C@H](O)CC[C@]4(C)[C@H]3CC[C@]12C [Compound 1b, (3α,5β)-3-Hydroxypregnan-20-one, reference compound]	63 ± 3 nM								300 nM
CC12CCC(O)CC1CCC1C2CCC23CC=CC(=O)C2CCC13 (stereo not drawn) [Compound 11a, (3α,5α)-3-Hydroxy-13,24-cyclo-18,21-dinorchol-22-en-20-one]	3380 ± 670 nM	None @ 10	1.49 ± 0.20	5.87 ± 1.52	9.07 ± 1.86	0.72 ± 0.03	373 ± 20 nM	230 to 232 °C	
C[C@]12CC[C@@H](O)C[C@@H]1CCC1C3CC[C@@H]4CC[C@H](C#N)C[C@]34CCC12 (stereo partly drawn) [Compound 50, (3α,5α,20S)-3-Hydroxy-13,24-cyclo-18,21-dinorcholane-23-carbonitrile]	350 ± 70 nM				2.1 ± 0.2		482 ± 20 nM	157 to 159 °C	950 ± 10 nM
